Patent publication US10829796B2, “Bacteria identification and antimicrobial susceptibility test” (priority 2015, dated 2020)

Tested on: bacteria in clinical bovine mastitis milk samples
Test: Combined bacteria identification and antimicrobial susceptibility test (colour of wells, MIC) on clinical bovine mastitis milk samples
Assay type: cell-based
Protocol: Clinical bovine mastitis milk samples were collected by a vet clinic in South Island, New Zealand. Samples were stored in the freezer for several months and shipped frozen to the testing facility. In this Example, the term “clinical” means that dairy cows had clinical symptoms of an udder infection e.g. cow behaved unusual, milk clots, swollen udder among other typical symptoms. Testing was executed in microwell plate comprising of 24 wells (3×8 wells).
In addition, 20 ul of clinical mastitis sample was added to each well with a laboratory pipette.
(§1) Abbreviations • 1. 80 ul GC+10 ul Tell: 80 ul Giolitti Cantoni base broth+10 ul Tellurite solution (1%); • 2. 80 ul TSB/Esc/Fer Cit: 80 ul Tryptic soy broth containing 0.25% Esculin and 0.125% Ammonium Ferric Citrate; • 3. 80 ul TSB/Esc/Fer Cit+10 ul Genta: 80 ul Tryptic soy broth containing 0.25% Esculin and 0.125% Ammonium Ferric Citrate+10 ul of Gentamycin solution 10 mg/ml; • 4. 80 ul McC/PR25: 80 ul MacConkey broth (single strength) containing 0.0125% phenol red; and • 5. 80 ul TSB/PR25: 80 ul Tryptic soy broth containing 0.0125% phenol red. Bacteria Identification
Columns A to C and rows 1 and 2 were used for bacteria identification. A1: coagulase positive Staph; A2: Staphylococci; B1: Strep group D; B2: Strep group D; C1: general enrichment media (gram+ and gram-bacteria); C2: coliform bacteria.
Column A3 to A8: serial dilution of benzyl penicillin as potassium. Column B3 to B8: serial dilution of ceftiofur as hydrochloride. Column C3 to C8: serial dilution of cloxacillin as sodium. Antibiotic concentrations are listed as free form ranging between 4 ug/ml to 0.05 ug/ml.
Minimum inhibitory substance concentration (MIC) is here defined as the concentration if a colour change occurs between two wells (one well remains red with drug concentration 1, the other one yellow with drug concentration 2, whereas drug concentration 1 is larger than drug concentration 2) then the MIC is the value of drug concentration 1.
Table 21 indicates the microwell plate configuration #1; Drugs: Benzylpenicillin as potassium; Cloxacillin as sodium; Ceftiofur as hydrochloride; Drug concentration in each well (A3 to C8) is based on 80 μl composition+10 μl drug solution+20 μl clinical mastitis milk sample and equivalent to listed drug concentration in μg/ml; 20 ul of clinical bovine mastitis milk sample was added to each well (A1 to C8).
In addition, each well received one drop of clinical sample from a transfer pipette which was on average about 35 mg. This was determined through weighing the well plate prior and after the addition of clinical mastitis samples. This weight was then divided by 24.
as §1, with “•” for “Abbreviations •”, “red.” for “red. Bacteria Identification”
Columns A to C and rows 1 and 2 were used for bacteria identification. A1: coagulase positive Staph; A2: Staphylococci; B1: Strep Group D; B2: -; C1: general enrichment media (gram+ and gram-); C2: coliform bacteria.
Column A3 to A8: serial dilution of benzyl penicillin as potassium. Drug concentrations given as free form ranging between 4 ug/ml to 0.05 ug/ml. Column B3 to B8: serial dilution of ceftiofur as hydrochloride. Drug concentrations given as free form ranging between 4 ug/ml to 0.05 ug/ml. Column C3 to C8: serial dilution of cloxacillin as sodium. Drug concentrations given as free form ranging between 4 ug/ml to 0.05 ug/ml.

CO/N=C(\C(=O)N[C@@H]1C(=O)N2C(C(=O)O)=C(CSC(=O)c3ccco3)CS[C@H]12)c1csc(N)n1 [ceftiofur]
yellow: Colour of media in each well (ID 6, T = 23h, 37° C., plate configuration #2, drug 0.05 μg/ml (Table 31)) | Colour of media in each well (ID 6, T = 23h, 37° C., plate configuration #2, drug 0.1 μg/ml (Table 31)) | Colour of media in each well (ID 6, T = 23h, 37° C., plate configuration #2, drug 0.5 μg/ml (Table 31)) | Colour of media in each well (ID 6, T = 23h, 37° C., plate configuration #2, drug 1 μg/ml (Table 31)) | Colour of media in each well (ID 6, T~7 h, 37° C., plate configuration #2, Table 35, drug 0.05 μg/ml) | Colour of media in each well (ID 6, T~7 h, 37° C., plate configuration #2, Table 35, drug 0.1 μg/ml) | Colour of media in each well (ID 6, T~7 h, 37° C., plate configuration #2, Table 35, drug 0.5 μg/ml) | Colour of media in each well (ID 6, T~11 h, 37° C., plate configuration #2, Table 35, drug 0.05 μg/ml) | Colour of media in each well (ID 6, T~11 h, 37° C., plate configuration #2, Table 35, drug 0.1 μg/ml) | Colour of media in each well (ID 6, T~11 h, 37° C., plate configuration #2, Table 35, drug 0.5 μg/ml) | Colour of media in each well (ID 6, T~23 h, 37° C., plate configuration #2, Table 35, drug 0.05 μg/ml) | Colour of media in each well (ID 6, T~23 h, 37° C., plate configuration #2, Table 35, drug 0.1 μg/ml) | Colour of media in each well (ID 6, T~23 h, 37° C., plate configuration #2, Table 35, drug 0.5 μg/ml) | Colour of media in each well (ID 6, T~23 h, 37° C., plate configuration #2, Table 35, drug 1 μg/ml) | Colour of media in each well (ID 7, T = 23h, 37° C., plate configuration #2, drug 0.05 μg/ml) | Colour of media in each well (ID 7, T = 23h, 37° C., plate configuration #2, drug 0.1 μg/ml) | Colour of media in each well (ID 7, T = 23h, 37° C., plate configuration #2, drug 0.5 μg/ml) | Colour of media in each well (ID 8, T = 23 h, 37° C., plate configuration #2, drug 0.05 μg/ml) | Colour of media in each well (ID 8, T = 23 h, 37° C., plate configuration #2, drug 0.1 μg/ml) | Colour of media in each well (Table 24, sample ID 2, 22 hours at 37° C., plate configuration #1, row 7 of serial dilution 4 ug/ml to 0.05 ug/ml) | Colour of media in each well (Table 24, sample ID 2, 22 hours at 37° C., plate configuration #1, row 8 of serial dilution 4 ug/ml to 0.05 ug/ml)
2 µg/mL: MIC (clinical sample ID 6 (coliform bacteria), 37° C. for 23 hours, plate configuration #2)
1 µg/mL: MIC (clinical sample ID 2 (streptococci group D, also coagulase positive Staph), 37° C. for 22 hours, plate configuration #1) | MIC (clinical sample ID 3 (coliform bacteria), 37° C. for 22 hours, plate configuration #1) | MIC (clinical sample ID 4 (coagulase positive Staph), 37° C. for 22 hours, plate configuration #1) | MIC (clinical sample ID 7 (coagulase positive Staph), 37° C. for 23 hours, plate configuration #2)
red: Colour of media in each well (ID 5 to 8, T = 0 h (prior incubation, reference), plate configuration #2, drug 2 μg/ml) | Colour of media in each well (ID 5 to 8, T = 0 h (prior incubation, reference), plate configuration #2, drug 4 μg/ml) | Colour of media in each well (ID 6, T = 23h, 37° C., plate configuration #2, drug 2 μg/ml (Table 31)) | Colour of media in each well (ID 6, T = 23h, 37° C., plate configuration #2, drug 4 μg/ml (Table 31)) | Colour of media in each well (ID 6, T~7 h, 37° C., plate configuration #2, Table 35, drug 1 μg/ml) | Colour of media in each well (ID 6, T~7 h, 37° C., plate configuration #2, Table 35, drug 2 μg/ml) | Colour of media in each well (ID 6, T~7 h, 37° C., plate configuration #2, Table 35, drug 4 μg/ml) | Colour of media in each well (ID 6, T~11 h, 37° C., plate configuration #2, Table 35, drug 1 μg/ml) | Colour of media in each well (ID 6, T~11 h, 37° C., plate configuration #2, Table 35, drug 2 μg/ml) | Colour of media in each well (ID 6, T~11 h, 37° C., plate configuration #2, Table 35, drug 4 μg/ml) | Colour of media in each well (ID 6, T~23 h, 37° C., plate configuration #2, Table 35, drug 2 μg/ml) | Colour of media in each well (ID 6, T~23 h, 37° C., plate configuration #2, Table 35, drug 4 μg/ml) | Colour of media in each well (ID 7, T = 23h, 37° C., plate configuration #2, drug 1 μg/ml) | Colour of media in each well (ID 7, T = 23h, 37° C., plate configuration #2, drug 2 μg/ml) | Colour of media in each well (ID 7, T = 23h, 37° C., plate configuration #2, drug 4 μg/ml) | Colour of media in each well (ID 8, T = 23 h, 37° C., plate configuration #2, drug 0.5 μg/ml) | Colour of media in each well (ID 8, T = 23 h, 37° C., plate configuration #2, drug 1 μg/ml) | Colour of media in each well (ID 8, T = 23 h, 37° C., plate configuration #2, drug 2 μg/ml) | Colour of media in each well (ID 8, T = 23 h, 37° C., plate configuration #2, drug 4 μg/ml) | Colour of media in each well (Table 24, sample ID 2, 22 hours at 37° C., plate configuration #1, row 3 of serial dilution 4 ug/ml to 0.05 ug/ml) | Colour of media in each well (Table 24, sample ID 2, 22 hours at 37° C., plate configuration #1, row 4 of serial dilution 4 ug/ml to 0.05 ug/ml) | Colour of media in each well (Table 24, sample ID 2, 22 hours at 37° C., plate configuration #1, row 5 of serial dilution 4 ug/ml to 0.05 ug/ml)
orange: Colour of media in each well (Table 24, sample ID 2, 22 hours at 37° C., plate configuration #1, row 6 of serial dilution 4 ug/ml to 0.05 ug/ml)
0.5 µg/mL: MIC (clinical sample ID 1 (streptococci group D), 37° C. for 22 hours, plate configuration #1) | MIC (clinical sample ID 5 (streptococci group D), 37° C. for 23 hours, plate configuration #2) | MIC (clinical sample ID 8 (coagulase negative Staph and Streptococci group D), 37° C. for 23 hours, plate configuration #2)
